# Laboratory results as given in patent publication US9232788B2, “Fumigation methods” (Honeywell International Inc., priority 2011, dated 2016).
# Entries after “also recorded” stand apart in the source; their conditions may differ.
# Columns and labels:
# [1] = test system: Abutilon theophrasti Medik. seeds; assay: Fumigant test on weed seeds in soil, seed germination count; assay type: in vivo; conditions: for Seeds Germinated Abutilon theophrastic Medik.: fourteen seeds in soil, two days treatment, counted after 10 days; for seed germination (in words): all experimental concentrations (80, 160, 440 ml)
# Experimental: (§1) In particular, in 440 mL pressure vessels, fourteen seeds of Abutilon theophrasti Medik. and fifteen seeds of Lolium multiflorum Lam. were thoroughly mixed with 50 mL (approximately 30 grams) of soil and 6 mL of water. The filled vessels were kept at room temperature for 20-24 hr to allow the seeds to imbibe water before treatment. The vessels were sealed and evacuated, and then 80 ml, 160 ml and 440 ml respectively of gaseous 1225zc was added. The vessels were thoroughly mixed and placed horizontally on the laboratory bench at ambient temperature for two days. The contents of each bottle were transferred to a plastic sterile Petri dish containing 7 mL of water. The Petri dishes were sealed with parafilm and incubated in the laboratory at ambient temperature. After 10 days, the number of germinated seeds was counted.
# The same experiment was performed as described in Example 1 except that hexafluoropropene (HFP) was used as the active fumigant composition.
# [2] = test system: Lolium multiflorum Lam. seeds; assay: as above; assay type: in vivo; conditions: for Seeds Germinated Loliium multiflorum Lam.: fifteen seeds in soil, two days treatment, counted after 10 days; for seed germination (in words): all experimental concentrations (80, 160, 440 ml)
# Experimental: as §1, with “counted. […]” for “counted.”
# [3] = Volatility of aqueous fumigant compositions with and without surfactant (weight loss); assay type: physicochemical; conditions: with Tween 80 nonionic surfactant versus without; 20° C., vented, weight loss every 30 seconds
# Experimental: Experimentation was carried out to determine the volatility of aqueous fumigant compositions, both with and without inclusion of a surfactant. In each case, the fluorocarbon was placed in a chilled 500 ml Fischer Porter tube that was equipped with a vent to remove any gases. The vessel was cooled to 0° C. and was charged with varying amounts of water, fluorocarbon and surfactant. The temperature was equilibrated to 20° C. and the reactor was placed on a balance. The vent tube was opened and the weight loss was recorded every 30 seconds.
# In analyzing the effects of adding surfactant to an aqueous solution of HFP, 10.11 grams of HFP was added to 39.71 grams of water. In a separate experiment, 9.83 grams of HFP and 4.03 grams of Tween™ 80 were added to 40.08 grams of water. FIG. 1 provides a graphical representation of the numerical data comparing the volatility of an aqueous solution of HFP, both with and without inclusion of the Tween™ 80 nonionic surfactant.
# In analyzing the effects of adding surfactant to an aqueous solution of 1225zc, 10.78 grams of 1225zc were added to 39.69 grams of water. In a separate experiment, 10.70 grams of 1225zc and 4.08 grams of Tween™ 80 were added to 40.15 grams of water. […]
# [4] = 80 ml gaseous fumigant in 440 mL vessel
# [5] = 160 ml gaseous fumigant in 440 mL vessel
# [6] = 440 ml gaseous fumigant in 440 mL vessel
SMILES,"Seeds Germinated Abutilon theophrastic Medik. [1, 4]","Seeds Germinated Abutilon theophrastic Medik. [1, 5]","Seeds Germinated Abutilon theophrastic Medik. [1, 6]",seed germination (in words) [1],seed germination (in words) ([1]; listed as 1125c),"Seeds Germinated Loliium multiflorum Lam. [2, 4]","Seeds Germinated Loliium multiflorum Lam. [2, 5]","Seeds Germinated Loliium multiflorum Lam. [2, 6]",seed germination (in words) [2],seed germination (in words) ([2]; listed as 1125c),retention of the fluorocarbon in aqueous solution [3]
"FC(F)=CC(F)(F)F [1225zc, 1,1,3,3,3-pentafluoropropene]",0,0,0,none,completely prevented seed germination,0,0,0,none,completely prevented seed germination,longer retention
"FC(F)=C(F)C(F)(F)F [HFP, hexafluoropropene]",0,0,0,completely prevented seed germination; also recorded: no germination occurred,–,0,0,0,completely prevented seed germination; also recorded: no germination occurred,–,longer retention
